4 molecules from BindingDB's records for PubMed 10411588 (The University of Calgary, 1999) can be followed below.

The assay addresses T1, Proteinase-activated receptor 2 (Rattus norvegicus, UniProt Q63645).
T1 sequence (Q63645 whole entry): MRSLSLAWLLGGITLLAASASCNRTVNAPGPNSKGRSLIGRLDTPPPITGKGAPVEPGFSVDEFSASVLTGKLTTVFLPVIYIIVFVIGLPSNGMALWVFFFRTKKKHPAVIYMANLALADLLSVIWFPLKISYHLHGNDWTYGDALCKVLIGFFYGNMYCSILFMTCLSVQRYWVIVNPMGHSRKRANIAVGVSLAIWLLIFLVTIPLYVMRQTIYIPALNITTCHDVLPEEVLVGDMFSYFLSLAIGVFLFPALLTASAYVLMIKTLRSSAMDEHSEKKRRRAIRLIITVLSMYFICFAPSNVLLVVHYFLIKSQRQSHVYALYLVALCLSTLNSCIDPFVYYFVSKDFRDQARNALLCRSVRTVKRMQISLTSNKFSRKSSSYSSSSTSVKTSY

A word on the Ki: it is a dissociation constant, usually derived from enzyme kinetics or from competition with a known ligand. Lower therefore signals tighter binding.

Where a SMILES comes first, the peptide text is derived from it. Where only a bound is given, the exact number is not on record here.

In turn, `CC[C@H](C)[C@H](NC(=O)[C@H](CC(C)C)NC(=O)C=Cc1ccccc1)C(=O)NCC(=O)N[C@@H](CCCNC(=N)N)C(=O)N[C@@H](CC(C)C)C(=O)N[C@@H](CCCN)C(N)=O` [trans-cinnamoyl-LIGRLO-NH2] (HELM PEPTIDE1{[O=C(C=Cc1ccccc1)[*:2]].L.I.G.R.L.[Orn].[am]}$$$$V2.0) had a Ki of 260 nM.

`CC(C)C[C@H](NC(=O)[C@H](CC(C)C)NC(=O)[C@H](Cc1ccccc1)NC(=O)[C@@H](N)CO)C(=O)N[C@@H](CCCN=C(N)N)C(=O)O` [SFLLR-OH]: the Ki is > 10000 nM.

`CC(C)C[C@H](NC(=O)[C@H](CC(C)C)NC(=O)[C@H](Cc1ccccc1)NC(=O)[C@@H](N)CO)C(=O)N[C@@H](CCCN=C(N)N)C(N)=O` [SFLLR-NH2] showed a Ki of 2300 nM.

Molecule `CC[C@H](C)[C@H](NC(=O)[C@H](CC(C)C)NC(=O)[C@@H](N)CO)C(=O)NCC(=O)N[C@@H](CCCNC(=N)N)C(=O)N[C@@H](CC(C)C)C(N)=O` [CAS_171436-38-7] (H-SLIGRL-NH2) returned a Ki of 260 nM.
